The source of these data is patent US8884030B2, “Inhibitors of Flaviviridae viruses” (priority 2010, dated 2014).

SMILES strings stand for the structures. Read-outs that look alike come from different tables or passages of the source.

For the assay, the system named is human hepatoma Huh-7 cell line harboring a HCV replicon. Put plainly: HCV replicon assay (inhibition of viral replication, luciferase). It counts as cell-based. Conditions: Hepatitis C virus, read-out: % inhibition at 2 μM. The gist of the method: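 Huh-7 replicon cells (1600/well) exposed 3 days at 37 °C to 10-point 3-fold dilutions, 0.44% DMSO. Replication measured by Dual-Glo luciferase, background from ITMN-191 wells; cytotoxicity by calcein AM. EC50/CC50 from Hill fit; % inhibition at fixed concentration derivable from fit.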

[1] abbreviates: 72 h, 2 μM, Huh-7 HCV replicon cells, 3 days incubation, inhibition of viral replication.

As a reminder, the inhibition is the drop in the measured response relative to a control, in per cent. As for `CN([C@H]1CC[C@H](N(c2cc(C#CC(C)(C)C)sc2C(=O)O)C(=O)[C@H]2CC[C@H](C)CC2)CC1)S(=O)(=O)c1cccnc1` [Compound 164, 5-(3,3-dimethyl-but-1-ynyl)-3-((4-trans-methyl-cyclohexanecarbonyl)-{4-trans-[methyl-(pyridine-3-sulfonyl)-amino]-cyclohexyl}-amino)-thiophene-2-carboxylic acid], under setting [1], the inhibition at 2 µM came out at 98.9%.

`CC(C)(C)C#Cc1cc(N(C(=O)[C@H]2CC[C@H](C)CC2)C2CCC(NS(=O)(=O)c3cccnc3)CC2)c(C(=O)O)s1` (stereo partly drawn) [Compound 165, 5-(3,3-dimethyl-but-1-ynyl)-3-{(4-trans-methyl-cyclohexanecarbonyl)-[4-(pyridine-3-sulfonylamino)-cyclohexyl]-amino}-thiophene-2-carboxylic acid]: under setting [1], the inhibition at 2 µM came out at 95.7%.

On to `CC1CCC(C(=O)N(c2cc(C#CC(C)(C)C)sc2C(=O)O)C2CCC(NC(=O)OC3CN(C(=O)OC(C)(C)C)C3)CC2)CC1` (centres unmarked) [Compound 186, 3-{4-[[2-carboxy-5-(3,3-dimethyl-but-1-ynyl)-thiophen-3-yl]-(4-methyl-cyclohexanecarbonyl)-amino]-cyclohexylcarbamoyloxy}-azetidine-1-carboxylic acid tert-butyl ester], for which the inhibition at 2 µM under setting [1] worked out at 98.9%.

Consider `CC1CCC(C(=O)N(c2cc(C#CC(C)(C)C)sc2C(=O)O)C2CCC(NN(C)C(=O)OC3CCOCC3)CC2)CC1` (centres unmarked) [Compound 217, 5-(3,3-dimethyl-but-1-ynyl)-3-((4-methyl-cyclohexanecarbonyl)-{4-[N′-methyl-N′-(tetrahydro-pyran-4-yloxycarbonyl)-hydrazino]-cyclohexyl}-amino)-thiophene-2-carboxylic acid], for which the inhibition at 2 µM under setting [1] worked out at 100%.

For `CC1CCC(C(=O)N(c2cc(C#CC(C)(C)C)sc2C(=O)O)C2CCC(NN(C)C(=O)Oc3ccccn3)CC2)CC1` (centres unmarked) [Compound 218, 5-(3,3-dimethyl-but-1-ynyl)-3-((4-methyl-cyclohexanecarbonyl)-{4-[N′-methyl-N′-(pyridin-2-yloxycarbonyl)-hydrazino]-cyclohexyl}-amino)-thiophene-2-carboxylic acid], the inhibition at 2 µM (Huh-7, 72 h) turned out to be 100%.
